# Measured values as given in patent US8859796B1, “Synthetic and purification methods for phosphaplatin compounds and uses thereof” (Phosplatin Therapeutics LLC, priority 2012, dated 2014).
# Legend:
# [1] = Long-term stability study of the recrystallized (R,R)-DACH-2 sample; format: physicochemical; conditions: not exceeding 25° C., humidity 60±5%
# Protocol: A long-term stability study of the recrystallized sample was conducted.
# [2] = Stability of saturated aqueous solutions of (R,R)-DACH-2 at pH 2, composition by HPLC; format: physicochemical
# Protocol: The resultant suspension was stirred for 30 min and the pH adjusted to 2 with 0.1M nitric acid. The solution was filtered through a 0.45 micron Whatman polypropylene filter to afford a clear solution. Samples of the solution were stored at 25° C. and 5° C. At the time intervals shown in Tables 2 and 3 the solution composition was determined by HPLC.
# [3] = after 14 months, initial 0.01% (wt/wt)
# [4] = aqueous solution, pH 2, 5° C., 0.1 h
# [5] = aqueous solution, pH 2, 5° C., 2 h
# [6] = aqueous solution, pH 2, 5° C., 4 h
# [7] = aqueous solution, pH 2, 5° C., 8 h
# [8] = aqueous solution, pH 2, 5° C., 16 h
# [9] = aqueous solution, pH 2, 5° C., 24 h
# [10] = aqueous solution, pH 2, 5° C., 48 h
# [11] = aqueous solution, pH 2, 25° C., 0.1 h
# [12] = aqueous solution, pH 2, 25° C., 2 h
# [13] = aqueous solution, pH 2, 25° C., 4 h
# [14] = aqueous solution, pH 2, 25° C., 8 h
# [15] = aqueous solution, pH 2, 25° C., 16 h
# [16] = aqueous solution, pH 2, 25° C., 24 h
# [17] = aqueous solution, pH 2, 25° C., 48 h
smiles,measurement,setting,value
"NC1CCCCC1N.O=P([O-])([O-])OP(=O)(O)O.[Pt+2] [(R,R)-DACH-2, cyclohexanediamine (pyrophosphato)platinum (II)]","(R,R)-DACH-2 purity on re-testing","[1]; after 14 months, HDPE bottle, initial 99.4% w/w",98.4 % (wt/wt)
same,chloride content on re-testing,[1]; [3],0.01% (wt/wt)
same,nitrate content on re-testing,[1]; [3],0.01% (wt/wt)
same,pyrophosphate content on re-testing,"[1]; after 14 months, initial 0.17% (wt/wt)",0.17% (wt/wt)
same,DACH-Pt—Cl2 content on re-testing,"[1]; after 14 months, initial not detected",not detected
same,"Long-term stability, conclusion in words","[1]; purified solid, 14 months",stable
same,"(R,R)-DACH-2",[2]; [4],12.8 HPLC Area %
same,"(R,R)-DACH-2 concentration",[2]; [4],0.1 mg/mL
same,"(R,R)-DACH-2 dimer",[2]; [4],16.8 HPLC Area %
same,"(R,R-DACH-2 water adduct)",[2]; [4],2.5 HPLC Area %
same,Pt-DACH-diaquo,[2]; [4],68.3 HPLC Area %
same,"(R,R)-DACH-2",[2]; [5],11.7 HPLC Area %
same,"(R,R)-DACH-2 concentration",[2]; [5],2 mg/mL
same,"(R,R)-DACH-2 dimer",[2]; [5],24.2 HPLC Area %
same,"(R,R-DACH-2 water adduct)",[2]; [5],2.22 HPLC Area %
same,Pt-DACH-diaquo,[2]; [5],60.9 HPLC Area %
same,"(R,R)-DACH-2",[2]; [6],10.6 HPLC Area %
same,"(R,R)-DACH-2 concentration",[2]; [6],4 mg/mL
same,"(R,R)-DACH-2 dimer",[2]; [6],29.2 HPLC Area %
same,"(R,R-DACH-2 water adduct)",[2]; [6],2.02 HPLC Area %
same,Pt-DACH-diaquo,[2]; [6],57.2 HPLC Area %
same,"(R,R)-DACH-2",[2]; [7],9.6 HPLC Area %
same,"(R,R)-DACH-2 concentration",[2]; [7],8 mg/mL
same,"(R,R)-DACH-2 dimer",[2]; [7],33.5 HPLC Area %
same,"(R,R-DACH-2 water adduct)",[2]; [7],1.81 HPLC Area %
same,Pt-DACH-diaquo,[2]; [7],53.6 HPLC Area %
same,"(R,R)-DACH-2",[2]; [8],9.3 HPLC Area %
same,"(R,R)-DACH-2 concentration",[2]; [8],16 mg/mL
same,"(R,R)-DACH-2 dimer",[2]; [8],35.1 HPLC Area %
same,"(R,R-DACH-2 water adduct)",[2]; [8],1.63 HPLC Area %
same,Pt-DACH-diaquo,[2]; [8],52.5 HPLC Area %
same,"(R,R)-DACH-2",[2]; [9],9.4 HPLC Area %
same,"(R,R)-DACH-2 concentration",[2]; [9],24 mg/mL
same,"(R,R)-DACH-2 dimer",[2]; [9],36.2 HPLC Area %
same,"(R,R-DACH-2 water adduct)",[2]; [9],1.43 HPLC Area %
same,Pt-DACH-diaquo,[2]; [9],51.5 HPLC Area %
same,"(R,R)-DACH-2",[2]; [10],9.3 HPLC Area %
same,"(R,R)-DACH-2 concentration",[2]; [10],48 mg/mL
same,"(R,R)-DACH-2 dimer",[2]; [10],34.7 HPLC Area %
same,"(R,R-DACH-2 water adduct)",[2]; [10],1.27 HPLC Area %
same,Pt-DACH-diaquo,[2]; [10],53.8 HPLC Area %
same,"(R,R)-DACH-2",[2]; [11],67.1 HPLC Area %
same,"(R,R)-DACH-2 concentration",[2]; [11],2.38 mg/mL
same,"(R,R)-DACH-2 dimer",[2]; [11],2.9 HPLC Area %
same,"(R,R-DACH-2 water adduct)",[2]; [11],13.3 HPLC Area %
same,Pt-DACH-diaquo,[2]; [11],16.7 HPLC Area %
same,"(R,R)-DACH-2",[2]; [12],50.6 HPLC Area %
same,"(R,R)-DACH-2 concentration",[2]; [12],1.75 mg/mL
same,"(R,R)-DACH-2 dimer",[2]; [12],14.3 HPLC Area %
same,"(R,R-DACH-2 water adduct)",[2]; [12],9.3 HPLC Area %
same,Pt-DACH-diaquo,[2]; [12],25.8 HPLC Area %
same,"(R,R)-DACH-2",[2]; [13],48.7 HPLC Area %
same,"(R,R)-DACH-2 concentration",[2]; [13],1.59 mg/mL
same,"(R,R)-DACH-2 dimer",[2]; [13],17.4 HPLC Area %
same,"(R,R-DACH-2 water adduct)",[2]; [13],9.2 HPLC Area %
same,Pt-DACH-diaquo,[2]; [13],24.8 HPLC Area %
same,"(R,R)-DACH-2",[2]; [14],51.6 HPLC Area %
same,"(R,R)-DACH-2 concentration",[2]; [14],1.41 mg/mL
same,"(R,R)-DACH-2 dimer",[2]; [14],13.4 HPLC Area %
same,"(R,R-DACH-2 water adduct)",[2]; [14],9.5 HPLC Area %
same,Pt-DACH-diaquo,[2]; [14],25.5 HPLC Area %
same,"(R,R)-DACH-2",[2]; [15],56.5 HPLC Area %
same,"(R,R)-DACH-2 concentration",[2]; [15],1.04 mg/mL
same,"(R,R)-DACH-2 dimer",[2]; [15],8.1 HPLC Area %
same,"(R,R-DACH-2 water adduct)",[2]; [15],9.8 HPLC Area %
same,Pt-DACH-diaquo,[2]; [15],25.6 HPLC Area %
same,"(R,R)-DACH-2",[2]; [16],57.6 HPLC Area %
same,"(R,R)-DACH-2 concentration",[2]; [16],0.88 mg/mL
same,"(R,R)-DACH-2 dimer",[2]; [16],7 HPLC Area %
same,"(R,R-DACH-2 water adduct)",[2]; [16],10.1 HPLC Area %
same,Pt-DACH-diaquo,[2]; [16],25.3 HPLC Area %
same,"(R,R)-DACH-2",[2]; [17],59.5 HPLC Area %
same,"(R,R)-DACH-2 concentration",[2]; [17],0.62 mg/mL
same,"(R,R)-DACH-2 dimer",[2]; [17],5.5 HPLC Area %
same,"(R,R-DACH-2 water adduct)",[2]; [17],9.3 HPLC Area %
same,Pt-DACH-diaquo,[2]; [17],25.9 HPLC Area %
same,"Degradation rate, conclusion in words","[2]; aqueous solution, pH 2, as temperature is reduced (25° C. to 5° C.)",significantly reduced
same,"Stability in aqueous solution, conclusion in words","[2]; saturated aqueous solution, pH 2",readily suffers hydrolytic degradation
